Laboratory results taken from patent US11459338B2, “Heterocyclic compounds as PRMT5 inhibitors” (JUBILANT EPISCRIBE LLC, priority 2018, dated 2022).

Experiments:
PRMT5/MEP50 = biological target: T1, PRMT5/MEP50 (Homo sapiens, UniProt O14744); assay: PRMT5/MEP50 enzyme assay on peptide substrates (3H-SAM Flashplate); type: biochemical; conditions: PRMT5/MEP50 10 nM, H4 1-15aa peptide 100 nM, 3H-SAM 1 μM
T1 construct: Full-length human PRMT5 (NP_006100)
Source text: General materials like S-adenocylmethionine (SAM), S-adenosylhomocysteine (SAH), Tris-HCl, DTT, […] (BSA) and Tween-20 were purchased from Sigma-Aldrich. 3H-SAM and 384-well streptavidin Flashplates were purchased from Perkin Elmer. Substrates that were used were Peptide representative of human Histone 4 residues 1-15 which was purchased from Rockland antibodies and assays.
PRMT5/MEP50 Enzyme assay on Peptide Substrates.
The assays were all performed in a buffer consisting of 50 mMTris-HCl, pH 8, 1 mM DTT, 0.01% BSA, 0.01% Tween-20, prepared on the day of use. Test compounds were diluted 3-fold in assay buffer (final DMSO concentration of 1%) and added into a 384-well OptiPlate (PerkinElmer, #6007290). A cocktail (10 μL) of PRMT5/MEP50 enzyme and the peptide was added to the wells. The compounds were allowed to incubate with PRMT5/MEP50 for 30 min at room temperature, then 5 μL of ^3H-SAM was added to initiate the reaction. The final concentrations of the components were as follows: PRMT5/MEP50-10 nM, H4, 1-15aa peptide-100 nM, ^3H-SAM-1 μM. The assays were stopped by the addition of 1 mM SAH. 25 μL of the reaction from the 384-well OptiPlate was then transferred to a 384-well Flashplate and the biotinylated peptides were allowed to bind to the streptavidin surface for at least 1 h, before being washed twice with 50 mMTris-HCl, pH 8, 0.1% Tween-20. The plates were then read in a PerkinElmer Topcount plate reader to measure the quantity of ^3H-labeled peptide bound to the Flashplate surface measured as disintegrations per minute (dpm), also referred to as counts per minute (cpm).
The IC50 values were calculated using a 4-parameter variable slope fit algorithm (cpm—counts per minute, cmpd—signal in assay well, and cpmmax and cpmmin mare the respective minimum and maximum signal controls).

Z-138 cells = assay: Z-138 long term proliferation assay (Cell Titer Glo); type: cell-based; conditions: Homo sapiens, 192 h; Z-138 cells, cell viability, day 8; read-out: PRMT5 Z138 GI50 Day 8 μM
Experimental: A compound source plate was prepared by performing ten-point 3-fold dilution in DMSO, such that the final top concentration of the compound was 10 μM, and DMSO was 0.3%. The total volume of compounds added was 20 μL. The cells were incubated for 96 h at 37° C., 5% CO2. […] The cells were re-treated with the compounds and incubated for an additional four days. Cell viability was measured on both day 4 and day 8, by adding 25 μL of Cell Titer Glo reagent to an equal volume of cell suspension. Luminescence was read on a PerkinElmer Victor3 multiplate reader. The concentration of compound inhibiting cell viability by 50% was determined using a 4-parameter, variable slope fit of the normalized dose response curves.

T1 sequence (O14744 whole entry): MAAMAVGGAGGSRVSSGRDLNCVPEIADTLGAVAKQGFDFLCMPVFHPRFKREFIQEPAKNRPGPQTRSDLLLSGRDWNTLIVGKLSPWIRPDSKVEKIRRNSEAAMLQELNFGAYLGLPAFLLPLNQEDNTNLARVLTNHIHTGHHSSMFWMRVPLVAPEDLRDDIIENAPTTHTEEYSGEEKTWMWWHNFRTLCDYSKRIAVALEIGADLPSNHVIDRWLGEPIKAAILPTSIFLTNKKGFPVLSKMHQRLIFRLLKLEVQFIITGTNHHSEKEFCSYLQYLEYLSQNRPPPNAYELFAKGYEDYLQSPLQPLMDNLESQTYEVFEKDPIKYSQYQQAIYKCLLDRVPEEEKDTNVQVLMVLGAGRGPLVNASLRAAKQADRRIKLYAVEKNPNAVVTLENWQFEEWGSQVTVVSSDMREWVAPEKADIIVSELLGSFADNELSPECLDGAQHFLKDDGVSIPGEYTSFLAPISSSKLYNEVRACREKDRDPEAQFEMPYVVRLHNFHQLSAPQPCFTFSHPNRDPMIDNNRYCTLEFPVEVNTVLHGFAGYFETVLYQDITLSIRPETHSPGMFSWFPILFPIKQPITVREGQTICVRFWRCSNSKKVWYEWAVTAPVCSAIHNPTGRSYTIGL
T1 sequence (Q9BQA1 whole entry partner): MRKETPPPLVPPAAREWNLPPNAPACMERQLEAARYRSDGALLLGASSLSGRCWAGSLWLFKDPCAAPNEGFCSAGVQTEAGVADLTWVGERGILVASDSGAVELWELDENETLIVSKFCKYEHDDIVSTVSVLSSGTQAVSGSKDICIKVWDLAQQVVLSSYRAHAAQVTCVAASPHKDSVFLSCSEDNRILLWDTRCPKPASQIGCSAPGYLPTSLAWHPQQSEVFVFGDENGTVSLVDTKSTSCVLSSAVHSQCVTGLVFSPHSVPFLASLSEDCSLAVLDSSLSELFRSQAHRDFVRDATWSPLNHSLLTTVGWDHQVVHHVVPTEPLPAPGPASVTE

| SMILES | IC50 (PRMT5/MEP50) [nM] | GI50 (Z-138 cells) [nM] |
| --- | --- | --- |
| O=C(NC[C@H](O)[C@@H](O)CN1CCc2ccccc2C1)c1cn2cc(-c3cnn([C@@H]4CCOC4)c3)ccc2n1 [Example 79, N-((2S,3S)-4-(3,4-dihydroisoquinolin-2(1H)-yl)-2,3-dihydroxybutyl)-6-(1-((R)-tetrahydrofuran-3-yl)-1H-pyrazol-4-yl)imidazo[1,2-a]pyridine-2-carboxamide] | 10 to 1000 | 10 to 1000 |
| Cn1ccc(-c2ccc3nc(C(=O)NC[C@H](O)[C@@H](O)CN4CCc5ccccc5C4)cn3c2)cc1=O [Example 80, N-((2S,3S)-4-(3,4-dihydroisoquinolin-2(1H)-yl)-2,3-dihydroxybutyl)-6-(1-methyl-2-oxo-1,2-dihydropyridin-4-yl)imidazo[1,2-a]pyridine-2-carboxamide] | 10 to 1000 | 10 to 1000 |
| Cn1cc(-c2ccc3nc(C(=O)NC[C@H](O)[C@@H](O)CN4CCc5ccccc5C4)cn3c2)cn1 [Example 81, N-((2S,3S)-4-(3,4-dihydroisoquinolin-2(1H)-yl)-2,3-dihydroxybutyl)-6-(1-methyl-1H-pyrazol-4-yl)imidazo[1,2-a]pyridine-2-carboxamide] | 10 to 1000 | 10 to 1000 |
| Cn1cc(-c2ccc3nc(C(=O)NC[C@H](O)CN4CCc5cc(F)ccc5C4)cn3c2)cn1 [Example 82, (S)—N-(3-(6-fluoro-3,4-dihydroisoquinolin-2(1H)-yl)-2-hydroxypropyl)-6-(1-methyl-1H-pyrazol-4-yl)imidazo[1,2-a]pyridine-2-carboxamide] | 1000 to 5000 | 1000 to 5000 |
| O=C(NC[C@H](O)CN1CCc2cc(F)ccc2C1)c1cn2nc(C(F)(F)F)ccc2n1 [Example 83, (S)—N-(3-(6-fluoro-3,4-dihydroisoquinolin-2(1H)-yl)-2-hydroxypropyl)-6-(trifluoromethyl)imidazo[1,2-b]pyridazine-2-carboxamide] | > 5000 | > 5000 |
| O=C(NC[C@H](O)CN1CCc2cc(F)ccc2C1)c1cn2cc(C(F)(F)F)ncc2n1 [Example 84, (S)—N-(3-(6-fluoro-3,4-dihydroisoquinolin-2(1H)-yl)-2-hydroxypropyl)-6-(trifluoromethyl)imidazo[1,2-a]pyrazine-2-carboxamide] | 1000 to 5000 | 1000 to 5000 |
| Cn1ccc(-c2cn3cc(C(=O)NC[C@H](O)CN4CCc5cc(F)ccc5C4)nc3cn2)cc1=O [Example 85, (S)—N-(3-(6-fluoro-3,4-dihydroisoquinolin-2(1H)-yl)-2-hydroxypropyl)-6-(1-methyl-2-oxo-1,2-dihydropyridin-4-yl)imidazo[1,2-a]pyrazine-2-carboxamide] | 1000 to 5000 | 1000 to 5000 |
| CN(C[C@H](O)CN1CCc2ccccc2C1)C(=O)c1cn2cc(C(F)(F)F)ccc2n1 [Example 88, (R)—N-(3-(3,4-dihydroisoquinolin-2(1H)-yl)-2-hydroxypropyl)-N-methyl-6-(trifluoromethyl)imidazo[1,2-a]pyridine-2-carboxamide] | 10 to 1000 | 10 to 1000 |
| CN(C[C@H](O)CN1CCc2ccccc2C1)C(=O)c1cn2cc(C(F)(F)F)ncc2n1 [Example 89, (R)—N-(3-(3,4-dihydroisoquinolin-2(1H)-yl)-2-hydroxypropyl)-N-methyl-6-(trifluoromethyl)imidazo[1,2-a]pyrazine-2-carboxamide] | 10 to 1000 | 10 to 1000 |
| CN(C[C@H](O)CN1CCc2ccccc2C1)C(=O)c1cc2nc(C(F)(F)F)ccn2n1 [Example 90, (R)—N-(3-(3,4-dihydroisoquinolin-2(1H)-yl)-2-hydroxypropyl)-N-methyl-5-(trifluoromethyl)pyrazolo[1,5-a]pyrimidine-2-carboxamide] | 1000 to 5000 | > 5000 |
| CN(C[C@H](O)CN1CCc2ccccc2C1)C(=O)c1cn2nc(C(F)(F)F)ccc2n1 [Example 91, (R)—N-(3-(3,4-dihydroisoquinolin-2(1H)-yl)-2-hydroxypropyl)-N-methyl-6-(trifluoromethyl)imidazo[1,2-b]pyridazine-2-carboxamide] | 1000 to 5000 | > 5000 |
| CN(C[C@H](O)CN1CCc2ccccc2C1)C(=O)c1cn2cc(-c3cnn(C)c3)ncc2n1 [Example 92, (R)—N-(3-(3,4-dihydroisoquinolin-2(1H)-yl)-2-hydroxypropyl)-N-methyl-6-(1-methyl-1H-pyrazol-4-yl)imidazo[1,2-a]pyrazine-2-carboxamide] | 10 to 1000 | 1000 to 5000 |
| CN(C[C@H](O)CN1CCc2ccccc2C1)C(=O)c1cn2cc(-c3ccc(=O)n(C)c3)ncc2n1 [Example 94, (R)—N-(3-(3,4-dihydroisoquinolin-2(1H)-yl)-2-hydroxypropyl)-N-methyl-6-(1-methyl-6-oxo-1,6-dihydropyridin-3-yl)imidazo[1,2-a]pyrazine-2-carboxamide] | 1000 to 5000 | 1000 to 5000 |
| CN(C[C@H](O)CN1CCc2ccccc2C1)C(=O)c1cn2cc(-c3ccc(C#N)cc3)ncc2n1 [Example 95, (R)-6-(4-cyanophenyl)-N-(3-(3,4-dihydroisoquinolin-2(1H)-yl)-2-hydroxypropyl)-N-methylimidazo[1,2-a]pyrazine-2-carboxamide] | 10 to 1000 | 10 to 1000 |
| O=C(NCC(O)CNC1Cc2ccccc2C1)c1cn2cc(C3CCOCC3)ccc2n1 (stereo not shown) [Example 97, N-(3-((2,3-dihydro-1H-inden-2-yl)amino)-2-hydroxypropyl)-6-(tetrahydro-2H-pyran-4-yl)imidazo[1,2-a]pyridine-2-carboxamide] | 10 to 1000 | 10 to 1000 |
| CC(=O)N1CCC(c2ccc3nc(C(=O)NCC(O)CNC4Cc5ccccc5C4)cn3c2)CC1 (stereo not shown) [Example 98, 6-(1-acetylpiperidin-4-yl)-N-(3-((2,3-dihydro-1H-inden-2-yl)amino)-2-hydroxypropyl)imidazo[1,2-a]pyridine-2-carboxamide] | 10 to 1000 | 10 to 1000 |
| Cn1ccc(-c2ccc3nc(C(=O)NCC(O)CNC4Cc5ccccc5C4)cn3c2)cc1=O (stereo not shown) [Example 99, N-(3-((2,3-dihydro-1H-inden-2-yl)amino)-2-hydroxypropyl)-6-(1-methyl-2-oxo-1,2-dihydropyridin-4-yl)imidazo[1,2-a]pyridine-2-carboxamide] | 10 to 1000 | 10 to 1000 |
| O=C(NCC(O)CN1CCc2ccccc2C1)c1cn2c(n1)CCCC2 (stereo not shown) [Example 101, N-(3-(3,4-dihydroisoquinolin-2(1H)-yl)-2-hydroxypropyl)-5,6,7,8-tetrahydroimidazo[1,2-a]pyridine-2-carboxamide] | 1000 to 5000 | > 5000 |
| O=C(NC[C@H](O)[C@@H](O)CN1CCc2ccccc2C1)c1cn2c(n1)CCC(C(F)(F)F)C2 (stereo partly drawn) [Example 117, N-((2S,3S)-4-(3,4-dihydroisoquinolin-2(1H)-yl)-2,3-dihydroxybutyl)-6-(trifluoromethyl)-5,6,7,8-tetrahydroimidazo[1,2-a]pyridine-2-carboxamide] | 10 to 1000 | 10 to 1000 |
| CN(C[C@H](O)CN1CCc2ccccc2C1)C(=O)c1cn2c(n1)CCC(C(F)(F)F)C2 (stereo partly shown) [Example 119] | 10 to 1000 | 10 to 1000 |
| Cn1cc([C@H]2CCc3nc(C(=O)NC[C@H](O)CN4CCc5ccccc5C4)cn3C2)cn1 [Example 120A, (R)—N—((S)-3-(3,4-dihydroisoquinolin-2(1H)-yl)-2-hydroxypropyl)-6-(1-methyl-1H-pyrazol-4-yl)-5,6,7,8-tetrahydroimidazo[1,2-a]pyridine-2-carboxamide] | 10 to 1000 | 10 to 1000 |
| Cn1cc([C@@H]2CCc3nc(C(=O)NC[C@H](O)CN4CCc5ccccc5C4)cn3C2)cn1 [Example 120B, (S)—N—((S)-3-(3,4-dihydroisoquinolin-2(1H)-yl)-2-hydroxypropyl)-6-(1-methyl-1H-pyrazol-4-yl)-5,6,7,8-tetrahydroimidazo[1,2-a]pyridine-2-carboxamide] | 10 to 1000 | 1000 to 5000 |
| N#Cc1ccc2nc(C(=O)NC[C@H](O)CN3CCc4ccccc4C3)cn2c1 [Example 123, (S)-6-cyano-N-(3-(3,4-dihydroisoquinolin-2(1H)-yl)-2-hydroxypropyl)imidazo[1,2-a]pyridine-2-carboxamide] | 10 to 1000 | 10 to 1000 |
